Source: patent US20020051828A1, “Mixtures which can be isolated from eugenia jambolana lamarck seeds, their preparation and the use of these mixtures and some of their constituents as medicaments” (priority 1996, published 2002)

What was measured:
[1] = tested on: normal mice with post-prandial hyperglycaemia; assay: glycaemia of normal mice with post-prandial hyperglycaemia; assay type: in vivo, Swiss albino mice; settings: 0.5 mg/mouse by gastric intubation; for GLYCAEMIA AT T0: T0, before administration; for GLYCAEMIA AT T60: T60, one hour after administration; for % inhibition: glycaemia T60 versus T0
Method: (§1) The hypoglycaemic activity of the mixtures I and II, of sodium oxamate and of the compounds of formula (I) have been determined in mice made diabetic with streptozocin and in normal mice with post-prandial hyperglycaemia according to the following procedures:
II—Normal Mice with Post-prandial Hyperglycaemia
Swiss albino mice weighing between 22 and 25 g are made to have post-prandial hyperglycaemia by the following procedure:
food in excess for 1 hour
The glycaemia is measured at the end of the last two hours of fasting, which constitutes the glycaemia at time T0. The mice are then divided into homogeneous batches according to the measured glycaemias. The products to be evaluated are administered without delay by gastric intubation in 0.4 ml of distilled water. The control batch receives the excipient (0.4 ml of distilled water). After one hour, the final glycaemias are measured which constitute the glycaemia at time T60.

[2] = tested on: mice made diabetic with streptozotocin; assay: glycaemia of mice made diabetic with streptozotocin; assay type: in vivo, Swiss albino mice; settings: for GLYCAEMIA AT D5 / % change in glycaemia: 0.5 mg/mouse/day by gastric intubation for 4 days; for GLYCAEMIA AT D5: D5, after 4 h fasting; for % change in glycaemia: glycaemia D5 versus D1; for GLYCAEMIA AT D1: 0.5 mg/mouse/day by gastric intubation, D1, start of treatment, after 4 h fasting
Method: as §1
I—Mice Made Diabetic with Streptozotocin
Swiss albino mice weighing between 22 and 25 g are made diabetic with streptozotocin administered by intraperitoneal injection at a dose of 210 or 265 mg/Kg of mouse, diluted in a citrate buffer at a concentration such that each mouse receives 0.2 ml of the solution on day 1 (D1). 3 to 4 days later, a check is made on 2 to 3 mice to see if the diabetes is established (glycaemia greater than 7.2 mmol/liter (130 mg per 100 ml). The glycaemia is then measured after starving for 4 hours. If the mice have become diabetic, they are divided into batches of 5 to 7 mice. Each of the batches receives, from D1 and daily, a selected dose of product. The administration is made once a day and at a fixed time, by gastric intubation and in a volume of 0.4 ml of distilled water as vehicle. Two batches of controls are made up:
one batch of untreated diabetic mice
These two batches of controls receive 0.4 ml of vehicle by gastric intubation and simultaneously with the treated mice.
The treatment lasts for 4 days. On the 5th day (D5), there is no administration of product. After fasting for 4 hours, the final glycaemias are measured.

[3] = oral toxicity (LD50) in mice; settings: mouse, in vivo, orally in mice
Method: The mixtures according to the invention, the sodium oxamate and the compounds of formula (I) have a low toxicity. Their LD50 is greater than 2000 mg/kg orally in mice.

## OCC(O)C(O)Cc1cnc(C(O)C(O)C(O)CO)cn1 (stereo not shown) [2-(tetrahydroxybutyl)-5-(2′,3′,4′-trihydroxybutyl)pyrazine]
[1]
  GLYCAEMIA AT T0: 128.75 mg/100 ml
  GLYCAEMIA AT T60: 90.50 mg/100 ml
  % inhibition: −29.70%
[2]
  GLYCAEMIA AT D5: 164.50 mg/100 ml
  % change in glycaemia: −45.93%
  GLYCAEMIA AT D1: 304.25 mg/100 ml

## NC(=O)C(=O)[O-].[Na+] [Sodium oxamate, sodium oxamate]
[1]
  GLYCAEMIA AT T0: 136.46 mg/100 ml
  GLYCAEMIA AT T60: 102.93 mg/100 ml
  % inhibition: −24.57%
[2]
  GLYCAEMIA AT D5: 89.90 mg/100 ml
  % change in glycaemia: −41.46%
  GLYCAEMIA AT D1: 153.40 mg/100 ml
[3]
  LD50: > 2000 mg/kg

## OCC(O)C(O)C(O)c1cnc(C(O)C(O)C(O)CO)cn1 (stereo not shown) [2,5-di(tetrahydroxybutyl)pyrazine, 2,5-di-(tetrahydroxybutyl)pyrazine]
[1]
  GLYCAEMIA AT T0: 136.25 mg/100 ml
  GLYCAEMIA AT T60: 102.41 mg/100 ml
  % inhibition: −24.83%
